Experimental data: ChEMBL document CHEMBL1909294, “Translating clinical findings into knowledge in drug safety evaluation--drug induced liver injury prediction system (DILIps)” (PLoS Comput Biol, 2011)

Experiments:
Hepatotoxicity [1] = tested on: Hepatotoxicity;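 on HepSE Combined Scores: combined hepatic side effect score as listed in the training data of the Drug Induced Liver Injury Prediction System (DILIps)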;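 on HepSE bilirubinemia: bilirubinemia hepatic side effect score drawn from the DILIps training data, a prediction system for drug-induced liver injury; call rule not given here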;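 on HepSE cholecystitis: Cholecystitis-related hepatic side effect score drawn from the DILIps (drug-induced liver injury prediction) training data set; call rule not given here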;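 on HepSE elevated liver function tests: hepatic side effect score for raised liver function tests, as recorded in the DILIps training set used for predicting drug-induced liver injury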; on HepSE hepatic failure: call rule not given here;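 on HepSE jaundice: Jaundice-related hepatic side-effect score drawn from the training data of the DILIps (drug-induced liver injury prediction system); call rule not given here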;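 on HepSE liver fatty: hepatic side effect score for fatty liver, taken from the DILIps training set for predicting drug-induced liver injury; call rule not given here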
Hepatotoxicity [2] = tested on: Hepatotoxicity; remark: listed apart in the source;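 on HepSE Combined Scores: combined hepatic side effect score as listed in the training data of the Drug Induced Liver Injury Prediction System (DILIps)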;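 on HepSE bilirubinemia: bilirubinemia hepatic side effect score drawn from the DILIps training data, a prediction system for drug-induced liver injury; call rule not given here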;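 on HepSE cholecystitis: Cholecystitis-related hepatic side effect score drawn from the DILIps (drug-induced liver injury prediction) training data set; call rule not given here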;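 on HepSE elevated liver function tests: hepatic side effect score for raised liver function tests, as recorded in the DILIps training set used for predicting drug-induced liver injury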; on HepSE hepatic failure: call rule not given here;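 on HepSE jaundice: Jaundice-related hepatic side-effect score drawn from the training data of the DILIps (drug-induced liver injury prediction system); call rule not given here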;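 on HepSE liver fatty: hepatic side effect score for fatty liver, taken from the DILIps training set for predicting drug-induced liver injury; call rule not given here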
Hepatotoxicity [3] = tested on: Hepatotoxicity; remark: listed apart in the source;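 on HepSE Combined Scores: combined hepatic side effect score as listed in the training data of the Drug Induced Liver Injury Prediction System (DILIps)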;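 on HepSE bilirubinemia: bilirubinemia hepatic side effect score drawn from the DILIps training data, a prediction system for drug-induced liver injury; call rule not given here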;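 on HepSE cholecystitis: Cholecystitis-related hepatic side effect score drawn from the DILIps (drug-induced liver injury prediction) training data set; call rule not given here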; on HepSE hepatic failure: call rule not given here;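 on HepSE jaundice: Jaundice-related hepatic side-effect score drawn from the training data of the DILIps (drug-induced liver injury prediction system); call rule not given here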;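 on HepSE liver fatty: hepatic side effect score for fatty liver, taken from the DILIps training set for predicting drug-induced liver injury; call rule not given here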
Hepatotoxicity [4] = tested on: Hepatotoxicity; remark: listed apart in the source;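 on HepSE Combined Scores: combined hepatic side effect score as listed in the training data of the Drug Induced Liver Injury Prediction System (DILIps)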;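 on HepSE bilirubinemia: bilirubinemia hepatic side effect score drawn from the DILIps training data, a prediction system for drug-induced liver injury; call rule not given here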;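 on HepSE cholecystitis: Cholecystitis-related hepatic side effect score drawn from the DILIps (drug-induced liver injury prediction) training data set; call rule not given here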; on HepSE hepatic failure: call rule not given here;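 on HepSE jaundice: Jaundice-related hepatic side-effect score drawn from the training data of the DILIps (drug-induced liver injury prediction system); call rule not given here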;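 on HepSE liver fatty: hepatic side effect score for fatty liver, taken from the DILIps training set for predicting drug-induced liver injury; call rule not given here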
Hepatotoxicity [5] = tested on: Hepatotoxicity; remark: listed apart in the source; on HepSE hepatic failure: call rule not given here
Hepatotoxicity [6] = tested on: Hepatotoxicity; remark: listed apart in the source; on HepSE hepatic failure: call rule not given here
Hepatotoxicity [7] = tested on: Hepatotoxicity; remark: listed apart in the source
Hepatotoxicity [8] = tested on: Hepatotoxicity; remark: listed apart in the source
Hepatotoxicity [9] = tested on: Hepatotoxicity; remark: listed apart in the source
Hepatotoxicity [10] = tested on: Hepatotoxicity; remark: listed apart in the source
Hepatotoxicity [11] = tested on: Hepatotoxicity; remark: listed apart in the source
Hepatotoxicity [12] = tested on: Hepatotoxicity; remark: listed apart in the source
Hepatotoxicity [13] = tested on: Hepatotoxicity; remark: listed apart in the source
Hepatotoxicity [14] = tested on: Hepatotoxicity; remark: listed apart in the source

SMILES	HepSE_bilirubinemia (Hepatotoxicity [1])	HepSE_hepatitis (Hepatotoxicity [2])	HepSE_jaundice (Hepatotoxicity [3])	HepSE_liver fatty (Hepatotoxicity [4])	HepSE_hepatic necrosis (Hepatotoxicity [5])	HepSE_cholecystitis (Hepatotoxicity [6])	HepSE_Combined Scores (Hepatotoxicity [7])	HepSE_hepatic failure (Hepatotoxicity [8])	HepSE_cholelithiasis (Hepatotoxicity [9])	HepSE_elevated liver function tests (Hepatotoxicity [10])	HepSE_hepatomegaly (Hepatotoxicity [11])	HepSE_liver disease (Hepatotoxicity [12])	HepSE_liver function tests abnormal (Hepatotoxicity [13])	HepSE_cirrhosis (Hepatotoxicity [14])	further results
C=CCC1(C(C)CCC)C(=O)NC(=O)NC1=O (stereo not drawn) [SECOBARBITAL]	0	0	0	0	0	0	0	0	0	0	0	0	0	0	
C#CCN(C)[C@H](C)Cc1ccccc1 [SELEGILINE]	1	1	0	0	0	1	5	0	1	0	0	0	1	0	
Clc1ccc(C(Cn2ccnc2)OCc2csc3c(Cl)cccc23)c(Cl)c1 (stereo not drawn) [SERTACONAZOLE]	0	0	0	0	0	0	0	0	0	0	0	0	0	0	
CN[C@H]1CC[C@@H](c2ccc(Cl)c(Cl)c2)c2ccccc21 [SERTRALINE]															HepSE_bilirubinemia (Hepatotoxicity [1]; Liver): 0; HepSE_hepatitis (Hepatotoxicity [2]; Liver): 1; HepSE_jaundice (Hepatotoxicity [3]; Liver): 1; HepSE_liver fatty (Hepatotoxicity [4]; Liver): 0; HepSE_hepatic necrosis (Hepatotoxicity [5]; Liver): 0; HepSE_cholecystitis (Hepatotoxicity [6]; Liver): 0; HepSE_Combined Scores (Hepatotoxicity [7]; Liver): 4; HepSE_hepatic failure (Hepatotoxicity [8]; Liver): 1; HepSE_cholelithiasis (Hepatotoxicity [9]; Liver): 0; HepSE_elevated liver function tests (Hepatotoxicity [10]; Liver): 0; HepSE_hepatomegaly (Hepatotoxicity [11]; Liver): 1; HepSE_liver disease (Hepatotoxicity [12]; Liver): 0; HepSE_liver function tests abnormal (Hepatotoxicity [13]; Liver): 0; HepSE_cirrhosis (Hepatotoxicity [14]; Liver): 0
FCOC(C(F)(F)F)C(F)(F)F [SEVOFLURANE]	1	1	1	0	1	0	5	1	0	0	0	0	0	0	
CC(C)CC(N(C)C)C1(c2ccc(Cl)cc2)CCC1 (stereo not drawn) [SIBUTRAMINE]	0	0	0	0	0	1	3	0	1	0	0	0	1	0	
CSCC[C@H](NC(=O)[C@H](Cc1ccc(OS(=O)(=O)O)cc1)NC(=O)[C@@H](N)CC(=O)O)C(=O)NCC(=O)N[C@@H](Cc1c[nH]c2ccccc12)C(=O)N[C@@H](CCSC)C(=O)N[C@@H](CC(=O)O)C(=O)N[C@@H](Cc1ccccc1)C(N)=O [SINCALIDE]	0	0	0	0	0	0	0	0	0	0	0	0	0	0	
